What was measured:
mice = details: single administration; cited from earlier work
[1] = Water and lipid solubility of modafinil (observation in background)
monkeys = details: single administration; cited from earlier work

For `NC(=O)C[S+]([O-])C(c1ccccc1)c1ccccc1` (stereo not drawn) [modafinil, 2-(benzhydryl-sulfinyl)acetamide], the locomotor activity (mice) is listed as “increased locomotor activity”, the “water and lipid solubility” value [1] is listed as “very poor” and the nocturnal activity (monkeys) is listed as “increased nocturnal activity”.
